Consider eight molecules from patent EP3496534B1, “LIQUID CONCENTRATE FOR PRESERVATION” (Ashland Industries Europe GmbH, priority 2016, dated 2018).

What all share (assay type): physicochemical
A short description of data set [1]: Solubility of diols in fully demineralized water.
Data set [2] can be described thus: Solubility of mixture A + diols. Particulars: 10g of substance added to 90g of mixture A. How it is done: 10g of each of the following substances was added to 90g of mixture A to obtain solutions (Table 3).
Data set [3] is described as follows: Surface tension of mixture A with water or diols. Particulars: for surface tension (change against addition of 10 parts of water): 10 parts added to 90 parts of mixture A, application concentration of 1% in water; for Surface tension, 1% in water, mN/m: 90.0 parts mixture A + 10.0 parts of the substance. As to the method: The surface tension of mixtures of 90 parts of mixture A from example 1 with 10 parts of water or diols respectively was determined (Table 5): Table 5

The nature of data set [4]: Solubility of various carboxylic acid salts + diols (appearance after stirring 3 h). How it is done: Various carboxylic acid salts were mixed with diols in order to test whether homogenous concentrates could be obtained: […]
In example 4c, 10 g of 1-(2-ethyl hexyl) glycerol ether or of 1,2-octanediol, was added to an aqueous potassium sorbate solution in order to obtain solutions (Table 4c). Table 4c […]
In example 4e, 10g of 1-(2-ethyl hexyl) glycerol ether or of 1,2-octanediol was added to aqueous mixtures of potassium sorbate with sodium benzoate (weight ratio 1/1) in order to obtain solutions (Table 4e) Table 4e

[5] abbreviates: 10.0 diol in potassium sorbate 5.0 / sodium benzoate 5.0 / water 80.0.
Where [6] appears, read: 10.0 diol in potassium sorbate 10.0 / sodium benzoate 10.0 / water 70.0.
The mark [7] stands for this setting: 10.0 diol in potassium sorbate 10.0 / water 80.0.
The mark [8] stands for this setting: 10.0 diol in potassium sorbate 15.0 / sodium benzoate 15.0 / water 60.0.
[9] abbreviates: 10.0 diol in potassium sorbate 20.0 / water 70.0.
Where [10] appears, read: 10.0 diol in potassium sorbate 22.5 / sodium benzoate 22.5 / water 45.0.
The mark [11] stands for this setting: 10.0 diol in potassium sorbate 30.0 / water 60.0.
Setting [12] is: 10.0 diol in potassium sorbate 45.0 / water 45.0.
Where [13] appears, read: 10.0 diol in sodium benzoate 10.0 / water 80.0.
[14] abbreviates: 10.0 diol in sodium benzoate 20.0 / water 70.0.
The mark [15] stands for this setting: 10.0 diol in sodium benzoate 30.0 / water 60.0.
Where [16] appears, read: 10.0 diol in sodium benzoate 45.0 / water 45.0.
Setting [17] is: 10.0 parts diol in potassium formate 45.0 / fully demineralized water 45.0.
The mark [18] stands for this setting: 10.0 parts diol in sodium propionate 30.0 / fully demineralized water 60.0.

Entries after “also recorded” stand apart in the source; their conditions may differ.

`CCCCCCCCCCC(O)CO` (stereo not drawn) [1,2-dodecanediol] gave a Solubility in data set [1] below 0.1%. In data set [2], the “Solubility of mixture A + diols” value was “dissolve; also recorded: clear solution”.

Regarding `CCCCC(O)CO` (stereo not drawn) [1,2-hexanediol], the Solubility entry in data set [1] was “Unlimited”. In addition, the “Solubility of mixture A + diols” value in data set [2] was “clear solution”.

Turning to `CCCCCCC(O)CO` (stereo not drawn) [1,2-octanediol], the “surface tension (change against addition of 10 parts of water)” value in data set [3] is “significantly decreased”. The “Surface tension, 1% in water, mN/m” value in data set [3] is recorded as 44.7 mN/m. Besides, the Solubility in data set [1] was determined as 0.7%. Besides, the “Solubility of mixture A + diols” value in data set [2] is reported as “clear solution”. Further, the “Appearance of solution after stirring during 3 h” value (“Appearance of solution” below) was 2 phases in data set [4] (setting [5]); “can dissolve; also recorded: clear” in data set [4] (setting [6]); “can dissolve; also recorded: clear” in data set [4] (setting [8]); “can dissolve; also recorded: clear” in data set [4] (setting [10]); 2 phases in data set [4] (setting [13]); “can dissolve; also recorded: clear” in data set [4] (setting [14]). The “Appearance of solution” value in data set [4] (setting [15]) and in data set [4] (setting [16]) was “can dissolve; also recorded: clear” each time. The “Appearance of the solution after stirring during 3h” value (“Appearance of the solution” below) in data set [4] (setting [7]) was 2 phases; in data set [4] (setting [9]), “can dissolve; also recorded: clear”; in data set [4] (setting [11]), “can dissolve; also recorded: clear”; in data set [4] (setting [12]), “can dissolve; also recorded: clear”. Also, the “Appearance after stirring for 3 h” value in data set [4] (setting [17]) was “can dissolve neither; also recorded: not dissolved, 2 phases”; in data set [4] (setting [18]) it was “can dissolve neither; also recorded: not dissolved, 2 phases”.

With `CCCCC(CC)COCC(O)CO` (stereo not drawn) [1-(2-ethylhexyl) glycerol ether], in data set [3], the “surface tension (change against addition of 10 parts of water)” value is listed as “significantly decreased”. Also, in data set [3], the “Surface tension, 1% in water, mN/m” value was found to be 35.6 mN/m. Further, in data set [1], the Solubility turned out to be 0.1%. The “Solubility of mixture A + diols” value in data set [2] was “clear solution”. Also, the “Appearance of solution” value is given as 2 phases in data set [4] (setting [5]); 2 phases in data set [4] (10.0 diol in potassium sorbate 7.5 / sodium benzoate 7.5 / water 75.0); “can dissolve” in data set [4] (setting [6]); “clear” in data set [4] (10.0 diol in potassium sorbate 10.0 / sodium benzoate 10.0 / water 70.0, listed as 1-(2-ethylhexyl)-glycerol ether); “can dissolve” in data set [4] (setting [8]); “clear” in data set [4] (10.0 diol in potassium sorbate 15.0 / sodium benzoate 15.0 / water 60.0, listed as 1-(2-ethylhexyl)-glycerol ether). The “Appearance of solution” value in data set [4] (setting [10]) is reported as “can dissolve”; in data set [4] (10.0 diol in potassium sorbate 22.5 / sodium benzoate 22.5 / water 45.0, listed as 1-(2-ethylhexyl)-glycerol ether), “clear”; in data set [4] (setting [13]), 2 phases; in data set [4] (10.0 diol in sodium benzoate 15.0 / water 75.0), 2 phases; in data set [4] (setting [14]) it was “can dissolve; also recorded: clear”; in data set [4] (setting [15]), “can dissolve; also recorded: clear”. Besides, in data set [4] (setting [16]), the “Appearance of solution” value is on record as “can dissolve; also recorded: clear”. Besides, the “Appearance of the solution” value in data set [4] (setting [7]) was 2 phases; in data set [4] (10.0 diol in potassium sorbate 15.0 / water 75.0), 2 phases; in data set [4] (setting [9]), “clear”; in data set [4] (10.0 diol in potassium sorbate 20.0 / water 70.0, listed as 1-(2-ethylhexyloxy)glycerol ether) it was “can dissolve”; in data set [4] (setting [11]) it was “clear”; in data set [4] (10.0 diol in potassium sorbate 30.0 / water 60.0, listed as 1-(2-ethylhexyloxy)glycerol ether), “can dissolve”. Besides, the “Appearance of the solution” value in data set [4] (setting [12]) is “clear”; in data set [4] (10.0 diol in potassium sorbate 45.0 / water 45.0, listed as 1-(2-ethylhexyloxy)glycerol ether) it was “can dissolve”. In addition, the “Appearance after stirring for 3 h” value is listed as “can dissolve neither; also recorded: not dissolved, 2 phases” in data set [4] (setting [17]); “not dissolved, 2 phases” in data set [4] (setting [18]); “can dissolve neither” in data set [4] (10.0 parts diol in sodium propionate 30.0 / fully demineralized water 60.0, listed as 1-(2-ethylhexyl)glycerol ether).

On to `CCCCCCCCCCCCOCC(O)CO` (stereo not drawn) [1-dodecyl glycerol ether], for which the Solubility in data set [1] was below 0.1%. Also, in data set [2], the “Solubility of mixture A + diols” value is listed as “clear solution”.

As for `OCC(O)CO` [Glycerol (85%), Glycerol, reference compound], in data set [3], the “surface tension (change against addition of 10 parts of water)” value is “not observed” and the “Surface tension, 1% in water, mN/m” value was found to be 72.2 mN/m.

For `CC(O)CO` (stereo not drawn) [Propylene glycol, reference compound], in data set [3], the “surface tension (change against addition of 10 parts of water)” value is “not observed” and the “Surface tension, 1% in water, mN/m” value came out at 72.3 mN/m.

With `O` [Water], the “Surface tension, 1% in water, mN/m” value in data set [3] is given as 71.9 mN/m.
